Data as given in patent US9334246B2, “Substituted triazines for malaria treatment and chemoprophylaxis” (The United States of America, as represented by the …, priority 2013, dated 2016).

Assays:
[1] = molecular target: hERG potassium ion channel (Homo sapiens, UniProt Q12809); test: hERG patch clamp assay (% inhibition at 10 μM); settings: % inhibition at 10 μM, patch clamp
P. falciparum C235 = test: Malaria SYBR Green Fluorescence Assay, C235 strain; format: cell-based, Plasmodium falciparum; settings: for C235: SYBR Green Assay
P. falciparum D6 = test: Malaria SYBR Green Fluorescence Assay, D6 strain; format: cell-based, Plasmodium falciparum; settings: for D6: SYBR Green Assay
P. falciparum W2 = test: Malaria SYBR Green Fluorescence Assay, W2 strain; format: cell-based, Plasmodium falciparum; settings: for W2: SYBR Green Assay

Sequence of hERG potassium ion channel (Q12809 whole entry): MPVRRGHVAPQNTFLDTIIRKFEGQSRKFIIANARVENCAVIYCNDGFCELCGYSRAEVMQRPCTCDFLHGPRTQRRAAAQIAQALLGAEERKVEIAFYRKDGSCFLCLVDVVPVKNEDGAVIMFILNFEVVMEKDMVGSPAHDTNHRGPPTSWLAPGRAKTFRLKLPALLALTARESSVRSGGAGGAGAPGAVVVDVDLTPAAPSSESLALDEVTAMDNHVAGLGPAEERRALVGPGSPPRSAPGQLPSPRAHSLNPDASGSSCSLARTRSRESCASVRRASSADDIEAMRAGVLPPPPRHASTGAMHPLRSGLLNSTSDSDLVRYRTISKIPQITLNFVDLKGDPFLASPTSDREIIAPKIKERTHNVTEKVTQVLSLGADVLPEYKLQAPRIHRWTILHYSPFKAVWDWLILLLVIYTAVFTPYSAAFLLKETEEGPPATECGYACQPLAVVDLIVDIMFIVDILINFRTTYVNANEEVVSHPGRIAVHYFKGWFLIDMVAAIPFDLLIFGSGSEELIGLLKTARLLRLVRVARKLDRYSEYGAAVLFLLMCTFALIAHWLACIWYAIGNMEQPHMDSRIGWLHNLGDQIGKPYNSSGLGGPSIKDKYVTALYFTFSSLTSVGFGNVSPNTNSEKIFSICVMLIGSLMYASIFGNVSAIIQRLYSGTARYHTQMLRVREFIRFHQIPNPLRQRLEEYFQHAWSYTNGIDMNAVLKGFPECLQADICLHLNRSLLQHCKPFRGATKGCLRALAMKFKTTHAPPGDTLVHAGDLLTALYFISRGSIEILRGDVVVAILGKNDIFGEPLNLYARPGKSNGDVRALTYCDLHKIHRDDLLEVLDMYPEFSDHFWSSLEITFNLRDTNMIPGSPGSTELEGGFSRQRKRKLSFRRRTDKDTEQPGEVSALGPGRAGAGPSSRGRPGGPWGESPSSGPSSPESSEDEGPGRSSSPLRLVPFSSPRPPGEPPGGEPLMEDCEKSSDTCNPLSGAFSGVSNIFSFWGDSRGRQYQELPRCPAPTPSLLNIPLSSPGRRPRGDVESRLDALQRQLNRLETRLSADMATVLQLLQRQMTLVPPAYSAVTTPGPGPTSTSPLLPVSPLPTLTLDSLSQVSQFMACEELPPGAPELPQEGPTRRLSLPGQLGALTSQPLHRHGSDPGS

| Molecule | hERG [1] [%] | C235 (P. falciparum C235) [ng/mL] | D6 (P. falciparum D6) [ng/mL] | W2 (P. falciparum W2) [ng/mL] | C235 (SYBR Green Assay IC50) (P. falciparum C235) [µg/mL] | D6 (SYBR Green Assay IC50) (P. falciparum D6) [µg/mL] | W2 (SYBR Green Assay IC50) (P. falciparum W2) [µg/mL] |
| --- | --- | --- | --- | --- | --- | --- | --- |
| CSc1ccc(-c2nc(NCCN3CCCC3)nc(C(Cl)(Cl)Cl)n2)cc1 [Cmpd 47] | 95 |  |  |  |  |  |  |
| CN1CCN(c2nc(-c3ccc(Cl)c(Cl)c3)nc(C(Cl)(Cl)Cl)n2)CC1 [Cmpd 22] | 33 |  |  |  |  |  |  |
| COc1ccc(-c2nc(NCCc3ccncc3)nc(C(Cl)(Cl)Cl)n2)cc1 [Cmpd 147] |  | 233 | 155 | 77 |  |  |  |
| CS(=O)(=O)c1ccc(-c2nc(N3CCC(N)CC3)nc(C(Cl)(Cl)Cl)n2)cc1 [Compound 627, CS(═O)(═O)C1═CC═C(C═C1)C1═NC(═NC(═N1)C(Cl)(Cl)Cl)N1CCC(N)CC1] |  |  |  |  | 0.048 | 0.085 | 0.025 |
| COc1ncccc1Nc1nc(N2CCN(C)CC2)nc(C(Cl)(Cl)Cl)n1 [Cmpd 353] |  |  |  |  | 0.211 | 0.101 | 0.08 |
| CN(C)C1CCN(c2nc(-c3ccc(Cl)c(Cl)c3)nc(C(Cl)(Cl)Cl)n2)C1 (stereo not shown) [Cmpd 20] | 50 |  |  |  |  |  |  |
| NC1(CNc2nc(Nc3ccc(OC(F)(F)F)cc3)nc(C(Cl)(Cl)Cl)n2)CCOCC1 [Cmpd 303] |  | 65 | 43 | 61 |  |  |  |
| CS(═O)(═O)c1ccc(cc1)c2nc(Nc3cccnc3)nc(n2)C(Cl)(Cl)Cl [Compound 654] |  | 271 | 198 | 185 |  |  |  |
| CCN1CCC(CNc2nc(-c3cccc(OC)c3)nc(C(Cl)(Cl)Cl)n2)CC1 [Cmpd 258] |  | 26 | 50 | 29 |  |  |  |
| COc1ccc(-c2nc(NCC3CCN(C(C)C)CC3)nc(C(Cl)(Cl)Cl)n2)c2ccccc12 [Cmpd 498] |  |  |  |  | 0.125 | 0.247 | 0.066 |
| CN1CCN(CC1)c2ccc(Nc3nc(nc(n3)C(Cl)(Cl)Cl)C(Cl)(Cl)Cl)cc2 [Compound 731] |  | 263 | 229 | 165 |  |  |  |
| Clc1cccc(-c2nc(NCCc3cnccn3)nc(C(Cl)(Cl)Cl)n2)c1 [Cmpd 472] |  |  |  |  | 0.244 | 0.449 | 0.051 |
| CC(C)N1CCC(CNc2nc(-c3ccc(Cl)cc3)nc(C(Cl)(Cl)Cl)n2)CC1 [Cmpd 487] |  |  |  |  | 0.033 | 0.064 | 0.019 |
| CN1CCC(Nc2nc(-c3ccccc3[N+](=O)[O-])nc(C(Cl)(Cl)Cl)n2)CC1 [Cmpd 550] |  |  |  |  | 0.03585 | 0.04805 | 0.02059 |
| CCN(CC)CCNc1nc(-c2ccc(OC)cc2)nc(C(Cl)(Cl)Cl)n1 [Cmpd 268] |  | 282 | 309 | 259 |  |  |  |
| COc1ncccc1Nc1nc(NCCC2CCCN2C)nc(C(Cl)(Cl)Cl)n1 (stereo not shown) [Cmpd 346] |  | 116 | 62 | 52 |  |  |  |
| Clc1ccc(-c2nc(NCCc3ccncc3)nc(C(Cl)(Cl)Cl)n2)cc1 [Cmpd 139] |  | 320 | 202 | 81 |  |  |  |
| CN1CCCN(c2nc(-c3ccc(Cl)cc3)nc(C(Cl)(Cl)Cl)n2)CC1 [Cmpd 287] |  | 232 | 143 | 60 |  |  |  |
| COC1═C(OC)C═C(C═C1)C1═NC(NCC2(N)CCCCC2)═NC(═N1)C(Cl)(Cl)Cl [Compound 669] |  | 23 | 12 | 10 |  |  |  |
| CN(C)CCCNc1nc(Nc2ccc(Cl)cc2)nc(n1)C(Cl)(Cl)Cl [Compound 636] |  |  |  |  | 0.04 | 0.016 | 0.018 |
| NC1CCN(CC1)C1═NC(═NC(═N1)C1═CC═C(C═C1)C1═CC═CC═C1)C(Cl)(Cl)Cl [Compound 634] |  |  |  |  | 0.088 | 0.145 | 0.062 |
| CN1CCC(CNc2nc(-c3ccc(C(Cl)(Cl)Cl)cc3)nc(C(Cl)(Cl)Cl)n2)CC1 [Cmpd 511] |  |  |  |  | 0.056 | 0.077 | 0.034 |
| FC(F)(F)Oc1ccc(Nc2nc(NCCN3CCCC3)nc(C(Cl)(Cl)Cl)n2)cc1 [Compound 656, FC(F)(F)OC1═CC═C(NC2═NC(═NC(NCCN3CCCC3)═N2)C(Cl)(Cl)Cl)C═C1] |  | 7 | 3 | 2 |  |  |  |
| CCN1CCCC(Nc2nc(Cc3ccc(OC)cc3)nc(C(Cl)(Cl)Cl)n2)C1 (stereo not shown) [Cmpd 86] |  | 991 | 623 | 600 |  |  |  |

| Molecule | hERG [1] [%] | C235 (P. falciparum C235) [ng/mL] | D6 (P. falciparum D6) [ng/mL] | W2 (P. falciparum W2) [ng/mL] | C235 (SYBR Green Assay IC50) (P. falciparum C235) [µg/mL] | D6 (SYBR Green Assay IC50) (P. falciparum D6) [µg/mL] | W2 (SYBR Green Assay IC50) (P. falciparum W2) [µg/mL] |
| --- | --- | --- | --- | --- | --- | --- | --- |
| CC1═CC═C(C═C1)C1═NC(═NC(═N1)C(Cl)(Cl)Cl)N1CCC(N)CC1 [Compound 623] |  |  |  |  | 0.032 | 0.058 | 0.021 |
| Clc1ccc(-c2nc(N3CCOCC3)nc(C(Cl)(Cl)Cl)n2)cc1 [Cmpd 31] | 12 |  |  |  |  |  |  |
| CSc1ccc(-c2nc(NCCCN3CCCC3)nc(C(Cl)(Cl)Cl)n2)cc1 [Cmpd 44] |  | 638 | 462 | 204 |  |  |  |
| CSc1ccc(-c2nc(N3CCCN(CCO)CC3)nc(C(Cl)(Cl)Cl)n2)cc1 [Cmpd 457] |  |  |  |  | 0.168 | 0.328 | 0.08 |
| COc1ncccc1Nc1nc(NCCN2CCCC2)nc(C(Cl)(Cl)Cl)n1 [Cmpd 350] |  | 900 | 560 | 467 |  |  |  |
| NC1(CNc2nc(-c3cccc(C(F)(F)F)c3)nc(C(Cl)(Cl)Cl)n2)CC1 [Compound 682, NC1(CNC2═NC(═NC(═N2)C2═CC(═CC═C2)C(F)(F)F)C(Cl)(Cl)Cl)CC1] |  | 82 | 68 | 31 |  |  |  |
| CC(C)CN1CCC(Nc2nc(-c3ccc(Cl)cc3)nc(C(Cl)(Cl)Cl)n2)CC1 [Compound 693, CC(C)CN1CCC(CC1)NC1═NC(═NC(═N1)C(Cl)(Cl)Cl)C1═CC═C(Cl)C═C1] |  | 69 | 37 | 29 |  |  |  |
| CC(C)(C)c1ccc(-c2nc(NCc3cccnc3)nc(C(Cl)(Cl)Cl)n2)cc1 [Cmpd 158] |  | 324 | 260 | 92 |  |  |  |
| COc1ccc(-c2nc(NCc3ccccn3)nc(C(Cl)(Cl)Cl)n2)cc1 [Cmpd 168] |  | 898 | 755 | 338 |  |  |  |
| COc1cccc(-c2nc(NCC3CCN(C(C)C)CC3)nc(C(Cl)(Cl)Cl)n2)c1 [Cmpd 485] |  |  |  |  | 0.045 | 0.094 | 0.024 |
| CC(C)(C)c1ccc(cc1)c2nc(NCC(C)(C)CN3CCCCCC3)nc(n2)C(Cl)(Cl)Cl [Compound 737] |  | 244.2 | 241.3 | 101.3 |  |  |  |
| COc1ccc(-c2nc(N3CCC(N)CC3)nc(C(Cl)(Cl)Cl)n2)c2ccccc12 [Compound 620, COC1═CC═C(C2═NC(═NC(═N2)C(Cl)(Cl)Cl)N2CCC(N)CC2)C2═C1C═CC═C2] |  |  |  |  | 0.409 | 0.431 | 0.175 |
| CN1CCC(CNc2nc(-c3ccc(C(C)(C)C)cc3)nc(C(Cl)(Cl)Cl)n2)CC1 [Cmpd 507] |  |  |  |  | 0.043 | 0.043 | 0.039 |
| Cc1ccc(-c2nc(NCC3CCN(C)CC3)nc(C(Cl)(Cl)Cl)n2)cc1 [Cmpd 503] |  |  |  |  | 0.026 | 0.044 | 0.014 |
| CC1(C)C=Cc2cc(-c3nc(NCCc4cnccn4)nc(C(Cl)(Cl)Cl)n3)ccc2O1 [Cmpd 545] |  |  |  |  | 0.3 | 0.338 | 0.147 |
| COc1ccc(-c2nc(N3CCCN(CCO)CC3)nc(C(Cl)(Cl)Cl)n2)c2ccccc12 [Cmpd 463] |  |  |  |  | 0.306 | 0.355 | 0.201 |
| CSc1ccc(-c2nc(NC3CC(C)(C)NC(C)(C)C3)nc(C(Cl)(Cl)Cl)n2)cc1 [Cmpd 323] |  | 51 | 20 | 17 |  |  |  |
| CC(C)(C)c1ccc(-c2nc(NCCc3cccnc3)nc(C(Cl)(Cl)Cl)n2)cc1 [Cmpd 175] |  | 165 | 110 | 54 |  |  |  |
| CN(C)CCCNc1nc(-c2ccccc2)nc(C(Cl)(Cl)Cl)n1 [Cmpd 443] |  |  |  |  | 0.161 | 0.145 | 0.043 |
| CN(CC(=O)OC(C)(C)C)c1nc(-c2ccc(Cl)cc2)nc(C(Cl)(Cl)Cl)n1 [Compound 687, CN(CC(═O)OC(C)(C)C)c1nc(nc(n1)C(Cl)(Cl)Cl)c2ccc(Cl)cc2] |  | 501 | 501 | 501 |  |  |  |
| CCN(CC)CCNc1nc(Cc2cccc(OC)c2)nc(C(Cl)(Cl)Cl)n1 [Cmpd 243] |  | 128 | 199 | 123 |  |  |  |
| CC(C)(N)CNc1nc(-c2ccc(Cl)cc2)nc(C(Cl)(Cl)Cl)n1 [Cmpd 284] |  | 18 | 12 | 3 |  |  |  |
| CN1CCC(CNc2nc(-c3cccc(C(F)(F)F)c3)nc(C(Cl)(Cl)Cl)n2)CC1 [Cmpd 508] |  |  |  |  | 0.022 | 0.034 | 0.013 |
| COc1cc(OC)cc(-c2nc(NCCC3CCCN3C)nc(C(Cl)(Cl)Cl)n2)c1 (stereo not shown) [Cmpd 478] |  |  |  |  | 0.022 | 0.042 | 0.014 |
